For orientation: IC50 means the concentration needed to halve the response being measured.

Like-named read-outs stand apart in the source and are kept apart here.

The text below walks through data of patent US11357774B2, “Use of a quinoline sulfonyl compound for treatment of inflammation, inflammatory disorders, autoimmune disorders and malaria” (priority 2019, dated 2022).

One data set concerns THP-1 monocytic cells. As to the kind of experiment: Sulforhodamine B (SRB) assay, IC50 on THP-1 cells. Type of data set: cell-based, human. The settings on record: read-out: IC50. As to the method:
(§1) The sulforhodamine B (SRB) assay^21 was used to determine the drug concentration that half of the cell growth/viability is inhibited (IC50). Cells were cultured in 96-well plates, with 5,000 cells in 100 μL of culture medium per well. The rest of the protocol was the same as described previously^22,23.
(§2) Data shown in Table 1 are IC50 values of VR23 and other compounds, which were determined using sulforhodamine B (SRB) assays on immunologically relevant cells (THP-1, SW-982 and PBMC). […] Two well-known proteasome inhibitors, BTZ and CFZ, were included for comparison since VR23 is also a proteasome inhibitor, albeit targeting different subunits^2. The widely used anti-inflammatory DEX was included, also for comparison.
(§3) THP-1, SW982 and PBMC cells (5,000 cells/well) were treated with each compound for 48 hours. The IC50, the drug concentration reducing cell growth/viability by 50%, was determined by a dose-response four-parameter curve (generated with GraphPad Prism V. 4.02) formed by 10 two-fold dilutions (n=3).
A general note: In SRB staining, fixed cells bind dye roughly in proportion to their protein.

The subject of data set [1] is SW-982 synovial cell line. The experiment in a line: Sulforhodamine B (SRB) assay, IC50 on SW-982 cells. Type of data set: cell-based. To be noted: Homo sapiens; SW982 cells, 48 hours, SRB; read-out: IC50. Here is the method:
as §1, §2, §3

Data set [2] deals with IL-6 secretion in SW-982 synovial cells. As to the kind of experiment: IL-6 secretion in IL-1β-stimulated SW-982 synovial cells (ELISA). It counts as cell-based, human. The settings on record: SW-982, IL-1β 1 ng/mL, 6 hours; VR23 10 μM, HCQ 60 μM. Here is the method: The mean±SEM (n=2) values were determined by a Dunnett's test.
(§4) The enzyme-linked immunosorbent assay (ELISA) is a quantitative measurement based on sandwich-based enzyme linking, using a protein-specific capture antibody to determine the levels of single or multiple chemokines and cytokines.
The measurement was carried out with a single-analyte ELISA. […] While not wishing to be limited by theory, cytokine IL-6 is strongly implicated to the progress of rheumatoid arthritis^29.

Data set [3] relates to human fibroblast-like synoviocytes from rheumatoid arthritis patients (HFLS-RA). The experiment in a line: Viability test, HFLS-RA cells. Type of data set: cell-based. To be noted: 6 hours, IL-1β 10 ng/mL, VR23 1.25-5.0 μM, HCQ 7.5-30 μM. Here is the method:
The values presented are the mean±SEM (n=3).
The CCK-8 assay was used to count viable cells under the various treatment conditions. Briefly, cells were cultured in 11 columns of a 96-well clustered plate, with 5,000 cells in 100 μL of culture medium per well, excluding one column for a media-only control. The plate was incubated overnight at 37° C. in the humidified conditions, followed by treatment with test compounds diluted in the culture medium (10 μL). Each column was treated with a different condition so that each treatment could have 8 repeats. […] The absorbance was measured using an automatic plate reader (Synergy H4 Hybrid Multi-Mode Microplate Reader, BioTek, Montreal, Canada) at 450 nm wavelength. The cell viability of each treatment sample was determined by using the following equation (%)=(Abstrtmt-Absmedia)/(AbsuT-Absmedia)*100, where Abstrtmt is the absorbance value of cells with the various treatment conditions; Absmedia is the absorbance of the well containing media only; AbsuT is the absorbance of the wells with untreated cells.
This finding was extended to human cells relevant to autoimmune diseases. […] Cytokine levels in cell culture supernatants were determined by a single-analyte ELISA. […] The cytokine secretion was measured in cell culture supernatants by a single-analyte ELISA.

For data set [4], the system named is IL-6 secretion in HFLS-RA cells. The experiment in a line: IL-6 secretion in stimulated HFLS-RA cells (ELISA). It counts as cell-based, human. To be noted: HFLS-RA, IL-1β 10 ng/mL, 6 hours; VR23 2.5-10 μM, HCQ 15 or 30 μM. Here is the method:
(§5) The mean±SEM (n=3) values were determined by a Dunnett's test.
(§6) The values presented are the mean±SEM (n=2).
as §4
(§7) This finding was extended to human cells relevant to autoimmune diseases. Human fibroblast-like synoviocytes (HFLS) are present in the synovial fluid of joint capsules and produce harmful molecules that contribute to joint destruction and the exacerbation of the disease in rheumatoid arthritis patients. […] The cells were then stimulated with IL-1β (FIG. 16) or LPS (FIG. 17), in the absence (control; IL-1β only) or presence of VR23 or HCQ. HCQ was included for comparison because it is often used to treat rheumatoid arthritis. […] For “VR23 only” samples, 5 μM VR23 was used. Fifty thousand HFLS cells per mL were used for the experiment. Cytokine levels in cell culture supernatants were determined by a single-analyte ELISA. […] Fifty thousand HFLS cells per mL were used for the experiment. The cytokine secretion was measured in cell culture supernatants by a single-analyte ELISA.
Background: ELISA stands for enzyme-linked immunosorbent assay.

For data set [5], the system named is IL-6 secretion in HFLS-N cells. The experiment in a line: IL-6 secretion in stimulated HFLS-N cells (ELISA). To be noted: IL-1β 10 ng/mL, 6 hours, VR23 2.5-10 μM, HCQ 15 or 30 μM. Type of data set: cell-based, human. As to the method: as §5, §6, §4, §7
Data set [6] relates to IL-1β, TNF-α, IL-6 and IL-8 secretion in THP-1 cells. The experiment in a line: Cytokine secretion in LPS-stimulated THP-1 cells (ELISA). Type of data set: cell-based, human. To be noted: THP-1, LPS 5 μg/mL, 6 hours; VR23 0.5-6 μM, BTZ 6 nM, CFZ 1 nM, DEX 2 μM. Here is the method: For comparison, BTZ (6 nM), CFZ (1 nM), and DEX (2 μM) were also included. *, **, and *** are p<0.05, p<0.01, and p<0.001, respectively, which denote a significant difference from the LPS-only group. The mean±SEM (n=3) values were determined by a Dunnett's test.
as §4
Data shown in FIG. 11 are the results of experiments carried out to investigate VR23's effect on the levels of inflammatory cytokines. […] For comparison, BTZ (6 nM), CFZ (1 nM) and DEX (2 μM) were also included. The levels of cytokine secreted in cell culture supernatants were measured by a single-analyte ELISA. The IC50 value of VR23 is 3 μM and the concentrations of BTZ, CFZ and DEX used are their respective IC50 values.

The subject of data set [7] is IL-8 secretion in THP-1 cells. As to the kind of experiment: IL-8 secretion in TNF-α-stimulated THP-1 cells (ELISA). Type of data set: cell-based, human. The settings on record: THP-1, TNF-α 10 ng/mL, 6 hours; VR23 at IC50 concentration (between 2 and 4 μM), BTZ 6 nM, CFZ 1 nM. As to the method:
For comparison, BTZ (6 nM), CFZ (1 nM), and DEX (2 μM) were also included. *** is p<0.001, which denotes a significant difference from the TNF-α-only group, determined by a Dunnett's test. The values presented are the mean±SEM (n=3).
as §4
The data in FIG. 12 show the levels of IL-8 secreted in the THP-1 culture medium in response to TNF-α alone (10 ng/mL) or in combination with varying concentrations (0.5, 1.0, 2, 4 or 6 μM) of VR23. For comparison, BTZ (6 nM), CFZ (1 nM) and DEX (2 μM) were also included. The measurement time was 6-hour post-stimulation. The measurement was carried out with a single-analyte ELISA.

The test system of a further data set is PBMC cells. The experiment in a line: Sulforhodamine B (SRB) assay, IC50 on PBMC. Type of data set: cell-based, human. The settings on record: read-out: IC50. Here is the method: as §1, §2, §3
Data set [8] has as its system IL-6 and TNF-α secretion in human PBMC. The experiment in a line: IL-6 and TNF-α in PHA-p-stimulated human PBMC (ELISA). To be noted: PHA-p 10 μg/mL, 6 hours. Type of data set: cell-based. As to the method: as §6, §4
Data in FIG. 14 show the levels of IL-6 (upper plot) and TNF-α (lower plot) in human PBMC (1×10^6/mL cells) stimulated with 10 μg/mL phytohemagglutinin-p (PHA-p) (10 μg/mL) for 6 hours, in the absence (control) or presence of varying concentrations of VR23 (0.38, 0.75, 1.5, 3 or 6 μM) or BTZ (6.25, 12.5, 25 or 50 nM). The measurement was carried out with a single-analyte ELISA.

On to `C[C@@H]1C[C@H]2[C@@H]3CCC4=CC(=O)C=C[C@]4(C)[C@@]3(F)[C@@H](O)C[C@]2(C)[C@@]1(O)C(=O)CO` [DEX, Dexamethasone], for which the IC50 came out at 2070 ± 67 nM with THP-1 monocytic cells (48 hours) and 2000 nM in the data set on THP-1 monocytic cells (Homo sapiens, THP-1, 48 h).
Take `CCN(CCO)CCCC(C)Nc1ccnc2cc(Cl)ccc12` (stereo not shown) [HCQ, hydroxychloroquine, reference compound]: the IC50 in data set [1] stood at 28200 nM. Further, the “secretion of IL-6” value in data set [2] is “comparable”. Moreover, the cell viability result in [3] is listed as “none of the conditions examined significantly affected the viability”. In addition, the “IL-6 secretion, dose dependence” value in [4] and in data set [5] was “decreases in a dose dependent manner” throughout.
As for `CC(C)C[C@H](NC(=O)[C@H](CCc1ccccc1)NC(=O)CN1CCOCC1)C(=O)N[C@@H](Cc1ccccc1)C(=O)N[C@@H](CC(C)C)C(=O)[C@@]1(C)CO1` [CFZ, carfilzomib, reference compound], the IC50 in the data set with THP-1 monocytic cells (48 hours) came to 1.01 ± 0.11 nM; in the data set on THP-1 monocytic cells (Homo sapiens, THP-1, 48 h), 1 nM. Further, the “levels of inflammatory cytokines IL-1β, TNF-α, IL-6, IL-8” value in [6] is recorded as “do not”. For the same compound, in data set [7], the IL-8 secretion result is “not effective at all”.
As to `CC(C)C[C@H](NC(=O)[C@H](Cc1ccccc1)NC(=O)c1cnccn1)B(O)O` [BTZ, bortezomib, reference compound], the IC50 with THP-1 monocytic cells (48 hours) was determined as 5.91 ± 0.34 nM; with THP-1 monocytic cells (Homo sapiens, THP-1, 48 h), 6 nM; in the data set on PBMC cells (48 hours), 5.86 ± 0.3 nM; with PBMC cells (Homo sapiens, 48 h), 6 nM. Also, the “levels of inflammatory cytokines IL-1β, TNF-α, IL-6, IL-8” value in data set [6] is given as “do not”. Besides, the IL-8 secretion result in data set [7] is “substantially reduced IL-8”. In addition, the “PHA-induced IL-6” value in data set [8] (VR23 1.5 μM, BTZ 6 nM) is given as “reduced the level of IL-6”. The “PHA-induced TNF-α” value in [8] (VR23 3.0 μM, BTZ 4× the IC50 dose) is given as “largely ineffective in reducing the level of TNF-α”.
